# Reference: patent EP0402717A1, “5-nitro-tetrahydropyrimidines and insecticides containing them for agricultural uses” (NIHON BAYER AGROCHEM K.K., priority 1989, dated 1990)
# Columns and labels:
# Format in all cases: in vivo
# [1] = test system: NiIaparvata lugens Stal; experiment: Test on plant hoppers (spray on rice plants), brown rice planthopper; details: 48 h, read-out: Mortality (%) Brown rice planthopper
# Protocol: (§1) A water dilution in a predetermined concentration of the active compound prepared as in Example 4 was sprayed onto rice plants, about 10 cm tall, grown in pots with a diameter of 12 cm in an amount of 10 ml per pot. The sprayed chemical was dried, and a wire net, 7 cm in diameter and 14 cm tall, was put over each of the pots. […] The mortality was then calculated.
# [2] = test system: Sogatella furcifera Horvath; experiment: Test on plant hoppers (spray on rice plants), white-backed rice planthopper; details: 48 h, read-out: Mortality (%) Whight bached rice planthopper
# Protocol: as §1
# (§2) In the same way as above, the mortality was calculated on Sogatella furcifera Horvath and organophosphorus-resistant Laodelphax striatellus Fallen.
# [3] = test system: Laodelphax striatellus Fallen; experiment: Test on plant hoppers (spray on rice plants), small brown planthopper; details: 48 h, read-out: Mortality (%) Small brown planthopper
# Protocol: as §1, §2
smiles,measurement,setting,value
CNC1=C([N+](=O)[O-])CN(C)CN1Cc1ccc(Cl)nc1 [Compound 8],mortality at 500 ppm,[1],100%
same,mortality at 500 ppm,[2],100%
same,mortality at 500 ppm,[3],100%
CN1CCN2C(=O)CCC([N+](=O)[O-])=C12 [Compound C-1],mortality at 500 ppm,[1],0%
same,mortality at 500 ppm,[2],0%
same,mortality at 500 ppm,[3],0%
CCCCCCCCCCCCN1CC([N+](=O)[O-])=C(NC)N(Cc2ccc(Cl)nc2)C1 [Compound 41],mortality at 500 ppm,[1],100%
same,mortality at 500 ppm,[2],100%
same,mortality at 500 ppm,[3],100%
O=c1[nH]c(=O)n2c(c1[N+](=O)[O-])NCC2 [Compound C-2],mortality at 500 ppm,[1],0%
same,mortality at 500 ppm,[2],0%
same,mortality at 500 ppm,[3],0%
